In PubChem BioAssay (NCI):
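Step 1: Grow cells in 96-well plates. Step 2: Expose to compound for 48 hours at 5 concentrations. Step 3: Interpolate endpoints linearly; if unreached, use highest concentration. Definition used: TGI = concentration required for complete inhibition of growth.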

Key:
Assay in all cases: inhibition of tumour cell growth, NCI panel, 48 h
TK-10 renal = system: TK-10 renal
MDA-MB-435 = system: MDA-MB-435
UACC-257 melanoma = system: UACC-257 melanoma
SF-295 CNS = system: SF-295 CNS
SF-539 CNS = system: SF-539 CNS
MCF7 breast = system: MCF7 breast
KM12 colon = system: KM12 colon
SNB-75 CNS = system: SNB-75 CNS
SNB-19 CNS = system: SNB-19 CNS
NCI-H23 lung = system: NCI-H23 lung
MOLT-4 leukemia = system: MOLT-4 leukemia
NCI-H226 lung = system: NCI-H226 lung
LOX IMVI melanoma = system: LOX IMVI melanoma
HCC-2998 colon = system: HCC-2998 colon

Structure (SMILES) | TGI (TK-10 renal) | TGI (MDA-MB-435) | TGI (UACC-257 melanoma) | TGI (SF-295 CNS) | TGI (SF-539 CNS) | TGI (MCF7 breast) | TGI (KM12 colon) | TGI (SNB-75 CNS) | TGI (SNB-19 CNS) | TGI (NCI-H23 lung) | TGI (MOLT-4 leukemia) | TGI (NCI-H226 lung) | TGI (LOX IMVI melanoma) | TGI (HCC-2998 colon)
NNc1nncc2n[nH]nc12 | > 100 µM | > 100 µM | > 100 µM | > 100 µM | > 100 µM | > 100 µM | > 100 µM | 85.5 µM | > 100 µM | > 100 µM | > 100 µM | > 100 µM | – | –
COc1cc(O)c2c(c1)OCC(Cc1ccc(O)cc1)C2=O (configuration not stated) | > 100 µM | > 100 µM | > 100 µM | > 100 µM | > 100 µM | – | > 100 µM | > 100 µM | > 100 µM | > 100 µM | > 100 µM | > 100 µM | > 100 µM | –
c1ccc(CSP234N5CCN2CCN3CCN4CC5)c(CSP234N5CCN2CCN3CCN4CC5)c1 | > 100 µM | > 100 µM | > 100 µM | > 100 µM | > 100 µM | > 100 µM | > 100 µM | > 100 µM | > 100 µM | > 100 µM | > 100 µM | – | > 100 µM | > 100 µM
N#Cc1nc(C2=C(Cl)c3ccccc3OC2)[nH]c1C#N | > 100 µM | – | – | – | 45.2 µM | 70 µM | 71.9 µM | – | > 100 µM | 69.1 µM | 40.5 µM | – | 45.6 µM | 61.8 µM
COc1ccc(N2C(=O)C3ON(C(C(N)=O)c4ccccc4)C(c4cc5ccccc5c5ccccc45)C3C2=O)cc1 (configuration not stated) | > 50 µM | > 50 µM | > 50 µM | > 50 µM | > 50 µM | > 50 µM | > 50 µM | > 50 µM | > 50 µM | > 50 µM | 46.9 µM | > 50 µM | > 50 µM | –
COC(=O)C(=Cc1cc(OC)c(OC)c(OC)c1-c1cc2c(cc1C(C)=O)OCO2)C(=O)OC | 187 µM | – | 188 µM | 102 µM | 88.2 µM | – | 70.4 µM | – | 69.6 µM | 75.9 µM | > 211 µM | 100 µM | 79.4 µM | 70.4 µM
CC(C)(C)c1ccc(-c2nc3ccc(Cl)cc3c(=O)o2)cc1 | > 100 µM | 56.5 µM | 65.1 µM | 58.1 µM | 35.8 µM | 61.7 µM | 19.2 µM | 81.6 µM | 80.1 µM | 35 µM | 36.3 µM | – | 31 µM | 27.6 µM
C/C(=C1/CCC/C(=C(/C)c2ccccc2)C1=O)c1ccccc1 | > 100 µM | – | 74.9 µM | > 100 µM | > 100 µM | – | > 100 µM | > 100 µM | > 100 µM | > 100 µM | 64.3 µM | 56.5 µM | > 100 µM | > 100 µM
O=c1c2cc(S(=O)(=O)O)ccc2nc(COc2ccc(Oc3ccc(Cl)cc3Cl)cc2)n1-c1ccc(Cl)cc1Oc1c(Cl)cccc1Cl | > 100 µM | 66.5 µM | 86.6 µM | 56.6 µM | 33.5 µM | 45.6 µM | > 100 µM | – | > 100 µM | 57.1 µM | > 100 µM | 49.6 µM | 32.2 µM | –
COc1ccc(C2C3=C(Nc4ncnn42)c2ccccc2OC3c2ccccc2)cc1 (configuration not stated) | – | 23.7 µM | > 100 µM | > 100 µM | > 100 µM | > 100 µM | 76.5 µM | – | > 100 µM | > 100 µM | 51 µM | – | > 100 µM | –
COc1ccccc1N1CCN(CCCN2/C(=C(\O)c3ccccc3)C(=O)c3c(C)cc(C)nc3S2(=O)=O)CC1 | > 100 µM | > 100 µM | > 100 µM | > 100 µM | > 100 µM | > 100 µM | > 100 µM | 30.8 µM | > 100 µM | > 100 µM | > 100 µM | 87.9 µM | 50 µM | –
CCO/N=C(/N)c1ncn(Cc2ccccc2)c1NCC(OCC)OCC | > 100 µM | – | > 100 µM | > 100 µM | > 100 µM | – | > 100 µM | > 100 µM | > 100 µM | – | > 100 µM | > 100 µM | > 100 µM | > 100 µM
CC1ON2CCCC2[C@H]1C(=O)N1C2CC3CCC2(CS1(=O)=O)C3(C)C (some centres not stated) | > 100 µM | > 100 µM | > 100 µM | > 100 µM | > 100 µM | > 100 µM | > 100 µM | > 100 µM | – | > 100 µM | > 100 µM | > 100 µM | > 100 µM | –
O=C(Nc1ccc(Cl)cc1Cl)C(=O)C(C(=O)c1ccncc1)C1OC(=O)c2ccccc21 (configuration not stated) | > 100 µM | – | > 100 µM | > 100 µM | > 100 µM | – | > 100 µM | > 100 µM | > 100 µM | > 100 µM | > 100 µM | > 100 µM | > 100 µM | > 100 µM
CN1C2CCC1CC(CCNC(c1ccccc1)c1ccccc1)C2 (configuration not stated) | 55 µM | 21.4 µM | 31.8 µM | 49 µM | 35.7 µM | – | > 100 µM | > 100 µM | > 100 µM | > 100 µM | > 100 µM | > 100 µM | 59.8 µM | –
COc1ccc(O)c(/C(C)=N/NC(=S)N(C)C)c1 | – | > 100 µM | > 100 µM | > 100 µM | > 100 µM | – | > 100 µM | > 100 µM | > 100 µM | > 88.5 µM | > 100 µM | > 100 µM | 22.9 µM | > 100 µM
NC(=S)Nc1ccc(S(=O)(=O)Nc2ccc(S(N)(=O)=O)cc2)cc1 | > 100 µM | > 100 µM | > 100 µM | > 100 µM | – | > 100 µM | > 100 µM | – | > 100 µM | > 100 µM | > 100 µM | > 100 µM | > 100 µM | –
CN(C)CCCN1c2ccccc2Sc2cnccc21 | > 100 µM | > 100 µM | 49.5 µM | > 100 µM | > 100 µM | > 100 µM | > 100 µM | > 100 µM | > 100 µM | – | > 100 µM | > 100 µM | > 100 µM | –
CC(C)N1CN(C(C(=O)N[C@@H]2C(=O)N3C2SC(C)(C)C3C(=O)O)c2ccccc2)CSC1=S (some centres not stated) | > 100 µM | – | > 100 µM | > 100 µM | > 100 µM | – | > 100 µM | > 100 µM | > 100 µM | > 100 µM | > 100 µM | – | > 100 µM | –
CCOP(=O)(O)C1C(CO)OC(n2ccc(=O)[nH]c2=O)C1O (configuration not stated) | > 100 µM | – | > 100 µM | > 100 µM | > 100 µM | – | > 100 µM | > 100 µM | > 100 µM | – | > 100 µM | > 100 µM | > 100 µM | > 100 µM
C=C1CCC23CC(CC[C@@H]2[C@@]12C[C@@H](c1ccoc1)OC2=O)OC3=O (some centres not stated) | > 100 µM | – | > 100 µM | > 100 µM | > 100 µM | – | > 100 µM | – | > 100 µM | > 100 µM | > 100 µM | > 100 µM | – | > 100 µM
N#C/C(N)=C(\C#N)N=CN | > 100 µM | > 100 µM | > 100 µM | > 100 µM | > 100 µM | > 100 µM | > 100 µM | > 100 µM | – | > 100 µM | > 100 µM | – | > 100 µM | > 100 µM
O=C1O/C(=C(/Cl)c2cccc3ccccc23)c2ccccc21 | > 100 µM | > 100 µM | > 100 µM | > 100 µM | > 100 µM | > 100 µM | > 100 µM | 55.2 µM | > 100 µM | > 100 µM | > 100 µM | – | – | > 100 µM
COc1cccc(N2C(=O)[C@H]3CC(C)c4c([nH]c5ccccc45)[C@H]3C2=O)c1 (some centres not stated) | > 100 µM | – | > 100 µM | 67.6 µM | 93.1 µM | – | > 100 µM | 42.1 µM | > 100 µM | > 100 µM | > 100 µM | > 100 µM | > 100 µM | > 100 µM
CSC1=N/C(=C\c2ccccc2)C(=O)N1CN1CCCCC1 | > 100 µM | > 100 µM | – | > 100 µM | – | > 100 µM | > 100 µM | > 100 µM | > 100 µM | > 100 µM | > 100 µM | > 100 µM | > 100 µM | –
Cc1ccc(S(=O)(=O)OC(c2ccc(Cl)cc2Cl)C2OC(=O)c3ccccc32)cc1 (configuration not stated) | > 100 µM | – | – | > 100 µM | > 100 µM | – | > 100 µM | – | > 100 µM | > 100 µM | > 100 µM | > 100 µM | > 100 µM | –
COc1cccc(/C=C2\C(=O)N(C(=O)c3ccc(NC(C)=O)cc3)N=C2C)c1 | > 100 µM | – | > 100 µM | > 100 µM | > 100 µM | – | – | > 100 µM | > 100 µM | > 100 µM | > 100 µM | > 100 µM | > 100 µM | > 100 µM
COc1ccc(N2C(=O)c3cc(C)cnc3S2(=O)=O)cc1 | > 100 µM | > 100 µM | – | > 100 µM | – | – | > 100 µM | > 100 µM | > 100 µM | > 100 µM | > 100 µM | > 100 µM | > 100 µM | > 100 µM
CCOC(=O)C(Cc1cn(S(=O)(=O)c2ccccc2)c2ccccc12)(NC(C)=O)C(=O)OCC | > 100 µM | – | 88.2 µM | > 100 µM | > 100 µM | – | > 100 µM | 33.3 µM | > 100 µM | > 100 µM | 61.4 µM | 93.6 µM | – | > 100 µM
